Here are results for 26 compounds from ChEMBL document CHEMBL1133146, “Potent nonpeptide endothelin antagonists: synthesis and structure-activity relationships of pyrazole-5-carboxylic acids” (Bioorg Med Chem Lett, 2000).

One experiment addresses T1, Endothelin-1 receptor (Rattus norvegicus, UniProt P26684).
T1 sequence (P26684 whole entry): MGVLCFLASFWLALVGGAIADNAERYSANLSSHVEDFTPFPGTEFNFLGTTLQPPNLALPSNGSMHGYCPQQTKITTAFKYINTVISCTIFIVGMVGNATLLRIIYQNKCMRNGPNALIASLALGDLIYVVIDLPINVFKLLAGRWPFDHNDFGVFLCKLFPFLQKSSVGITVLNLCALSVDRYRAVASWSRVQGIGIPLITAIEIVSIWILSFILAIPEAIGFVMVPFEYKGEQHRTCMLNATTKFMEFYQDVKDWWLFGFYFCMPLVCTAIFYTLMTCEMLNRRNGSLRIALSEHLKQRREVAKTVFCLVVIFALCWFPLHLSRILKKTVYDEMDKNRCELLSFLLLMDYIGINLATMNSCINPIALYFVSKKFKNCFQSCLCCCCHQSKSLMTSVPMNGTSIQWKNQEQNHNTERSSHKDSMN
In words: In vitro binding affinity to endothelin A receptor in rat heart ventricles.

The target of experiment [1] is T2, Endothelin receptor type B (Rattus norvegicus, UniProt P21451).
T2 sequence (P21451 whole entry): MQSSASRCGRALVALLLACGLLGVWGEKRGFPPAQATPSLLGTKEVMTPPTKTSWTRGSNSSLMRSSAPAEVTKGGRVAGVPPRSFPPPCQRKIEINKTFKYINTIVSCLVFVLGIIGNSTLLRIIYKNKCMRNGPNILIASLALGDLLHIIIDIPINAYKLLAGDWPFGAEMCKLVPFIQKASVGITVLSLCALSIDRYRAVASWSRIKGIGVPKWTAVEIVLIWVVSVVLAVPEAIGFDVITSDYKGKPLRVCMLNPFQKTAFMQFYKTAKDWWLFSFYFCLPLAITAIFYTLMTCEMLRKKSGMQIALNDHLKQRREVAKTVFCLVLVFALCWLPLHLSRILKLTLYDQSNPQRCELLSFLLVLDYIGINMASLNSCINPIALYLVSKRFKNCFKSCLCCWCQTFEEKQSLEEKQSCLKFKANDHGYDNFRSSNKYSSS
In words: In vitro binding affinity to endothelin B receptor in rat cerebellum. In kind it is tissue-based.

Experiment [2] concerns Endothelin receptor ET-A/ET-B (Rattus norvegicus). In words: Ratio of ETA / ETB was determined; 1/7.
Experiment [3] has the same test system. Put plainly: Ratio of ETA / ETB was determined; 22/1.

Molecules are shown by their SMILES.

For orientation: IC50 means the concentration that inhibits the measured activity by half. The low end stands for greater potency in that assay, the high end for weaker potency in that assay. Regarding `O=C(O)c1cc2c(c(Cn3nc(-c4ccccc4)c(Cc4cc5c(cc4Cl)OCO5)c3C(=O)O)c1)OCOC2`, the IC50 on Endothelin-1 receptor was found to be 2.5 nM; in experiment [1], 44 nM.
The like results for `O=C(O)c1c(Cc2cc3c(cc2Cl)OCO3)c(-c2ccccc2)nn1CC12CC3CC(CC(C3)C1)C2` were, in that order, 3.4 nM and 4.9 nM.
The like results for `O=C(O)COc1ccccc1Cn1nc(-c2cccs2)c(Cc2cc3c(cc2Cl)OCO3)c1C(=O)O` were, in that order, 28.3 nM and 4.6 nM.
As to `O=C(O)COc1ccccc1Cn1nc(-c2ccccc2)c(Cc2cc3c(cc2Cl)OCO3)c1C(=O)O`, the IC50 on Endothelin-1 receptor came out at 59 nM; in experiment [1], 3.3 nM.
For `O=C(O)c1c(Cc2cc3c(cc2Cl)OCO3)c(-c2cccs2)nn1CC1CCCC(C(=O)O)C1` (stereo not drawn), the Ratio in experiment [2] is 7. For the same compound, the IC50 was 1.3 nM on Endothelin-1 receptor and 9.9 nM in experiment [1].
In the case of `O=C(O)c1c(Cc2cc3c(cc2Cl)OCO3)c(-c2ccccc2)nn1CC1OCCO1`, the figures for the IC50 (at Endothelin-1 receptor; in experiment [1]) were 70 nM and 953 nM, respectively.
Turning to `O=C(O)c1c(Cc2cc3c(cc2Cl)OCO3)c(-c2ccco2)nn1CC1CCCCC1`, the IC50 was found to be 1.3 nM on Endothelin-1 receptor and 9.8 nM in experiment [1].
The like results for `O=C(O)c1c(Cc2cc3c(cc2Cl)OCO3)c(-c2ccsc2)nn1CC1CCCCC1` were, in that order, 1.1 nM and 3.2 nM.
The like results for `O=C(O)c1c(Cc2cc3c(cc2Cl)OCO3)c(-c2ccccc2)nn1Cc1cccc(Cl)c1` were, in that order, 17 nM and 11 nM.
The like results for `O=C(O)c1c(Cc2cc3c(cc2Cl)OCO3)c(-c2ccccc2)nn1CC1CCCCC1` were, in that order, 3.6 nM and 2.6 nM.
`O=C(O)c1c(Cc2cc3c(cc2Cl)OCO3)c(-c2cccnc2)nn1CC1CCCCC1`: the IC50 on Endothelin-1 receptor was determined as 17.8 nM; in experiment [1], 6.3 nM.
The like results for `O=C(O)c1c(Cc2cc3c(cc2Cl)OCO3)c(-c2ccccc2)nn1CC1CCC(C(=O)O)CC1` (stereo not drawn) were, in that order, 4.9 nM and 810 nM.
The like results for `COc1cc(Cn2nc(-c3ccccc3)c(Cc3cc4c(cc3Cl)OCO4)c2C(=O)O)cc(OC)c1` were, in that order, 28 nM and 9.7 nM.
As to `COc1ccc(-c2nn(CC3CCCCC3)c(C(=O)O)c2Cc2cc3c(cc2Cl)OCO3)cc1`, in experiment [1], the IC50 was found to be 178 nM.
`COc1ccc(Cn2nc(-c3cccs3)c(Cc3cc4c(cc3Cl)OCO4)c2C(=O)O)c(OCC(=O)O)c1`: the IC50 worked out at 14.9 nM at Endothelin-1 receptor and 8.6 nM in experiment [1].
The like results for `O=C(O)c1c(Cc2cc3c(cc2Cl)OCO3)c(-c2cccs2)nn1CC1CCCCC1` were, in that order, 1.1 nM and 1.7 nM.
The like results for `O=C(O)c1c(Cc2cc3c(cc2Cl)OCO3)c(-c2ccccc2)nn1Cc1ccc(Cl)c(Cl)c1` were, in that order, 34 nM and 26 nM.
The like results for `O=C(O)c1c(Cc2cc3c(cc2Cl)OCO3)c(-c2ccccn2)nn1CC1CCCCC1` were, in that order, 4.7 nM and 3.4 nM.
Consider `O=C(O)c1ccc(Cn2nc(-c3ccccc3)c(Cc3cc4c(cc3Cl)OCO4)c2C(=O)O)cc1`, for which the results for the IC50 (at Endothelin-1 receptor; in experiment [1]) were 11 nM and 2040 nM, respectively.
Turning to `O=C(O)c1c(Cc2cc3c(cc2Cl)OCO3)c(-c2ccccc2)nn1CC1CCCC(C(=O)O)C1` (stereo not drawn), the IC50 is 2.5 nM at Endothelin-1 receptor and 14.8 nM in experiment [1].
The like results for `CCC(CC)Cn1nc(-c2ccccc2)c(Cc2cc3c(cc2Cl)OCO3)c1C(=O)O` were, in that order, 15 nM and 31 nM.
Regarding `O=C(O)c1c(Cc2cc3c(cc2Cl)OCO3)c(-c2cccs2)nn1CC1CCC(C(=O)O)CC1` (stereo not drawn), the IC50 at Endothelin-1 receptor was 0.81 nM; in experiment [1] it was 825 nM.
On to `COc1ccc(Cn2nc(-c3ccccc3)c(Cc3cc4c(cc3Cl)OCO4)c2C(=O)O)c(OCC(=O)O)c1`, for which the IC50 on Endothelin-1 receptor came to 89 nM; in experiment [1], 4 nM. Moreover, the Ratio in experiment [3] is 22.
As for `O=C(O)c1cc(Cn2nc(-c3ccccc3)c(Cc3cc4c(cc3Cl)OCO4)c2C(=O)O)on1`, the IC50 at Endothelin-1 receptor stood at 79 nM; in experiment [1], 440 nM.
The like results for `O=C(O)c1c(Cc2cc3c(cc2Cl)OCO3)c(-c2ccccc2)nn1C1CCCCC1` were, in that order, 226 nM and 131 nM.
The like results for `O=C(O)COC1CCCCC1Cn1nc(-c2ccccc2)c(Cc2cc3c(cc2Cl)OCO3)c1C(=O)O` (stereo not drawn) were, in that order, 20.5 nM and 3.2 nM.
